# Source: ChEMBL document CHEMBL1240349, “Influence of tigecycline on expression of virulence factors in biofilm-associated cells of methicillin-resistant Staphylococcus aureus” (2010)
# What was measured:
# Type in all cases: functional
# Staphylococcus aureus [1] = experiment: Increase in fnbB gene expression in biofilm-associated cells of epidemic methicillin-resistant Staphylococcus aureus isolate 16 at 4 times MIC incubated for 1 hr by whole genome microarray relative to untreated control
# Staphylococcus aureus [2] = experiment: Increase in ssaA gene expression in biofilm-associated cells of epidemic methicillin-resistant Staphylococcus aureus isolate 16 at 4 times MIC incubated for 1 hr by whole genome microarray relative to untreated control
# Staphylococcus aureus [3] = experiment: Increase in gapR gene expression in biofilm-associated cells of epidemic methicillin-resistant Staphylococcus aureus isolate 16 at 4 times MIC incubated for 1 hr by whole genome microarray relative to untreated control
# Staphylococcus aureus [4] = experiment: Increase in tuf gene expression in biofilm-associated cells of epidemic methicillin-resistant Staphylococcus aureus isolate 16 at 4 times MIC incubated for 1 hr by whole genome microarray relative to untreated control
# Staphylococcus aureus [5] = experiment: Decrease in capD gene expression in biofilm-associated cells of epidemic methicillin-resistant Staphylococcus aureus isolate 16 at 4 times MIC incubated for 1 hr by whole genome microarray relative to untreated control
# Staphylococcus aureus [6] = experiment: Increase in rpoC gene expression in biofilm-associated cells of epidemic methicillin-resistant Staphylococcus aureus isolate 16 at 4 times MIC incubated for 1 hr by whole genome microarray relative to untreated control
# Staphylococcus aureus [7] = experiment: Increase in cna expression in biofilm-associated cells of epidemic methicillin-resistant Staphylococcus aureus isolate 16-2 at 4 times MIC incubated for 1 hr by RT-PCR relative to untreated control
# Staphylococcus aureus [8] = experiment: Decrease in capB gene expression in biofilm-associated cells of epidemic methicillin-resistant Staphylococcus aureus isolate 16 at 4 times MIC incubated for 1 hr by whole genome microarray relative to untreated control
# Staphylococcus aureus [9] = experiment: Increase in fnbA gene expression in biofilm-associated cells of epidemic methicillin-resistant Staphylococcus aureus isolate 16 at 4 times MIC incubated for 1 hr by whole genome microarray relative to untreated control
# Staphylococcus aureus [10] = experiment: Decrease in icaC expression in biofilm-associated cells of epidemic methicillin-resistant Staphylococcus aureus isolate 16-1 at 4 times MIC incubated for 1 hr by RT-PCR relative to untreated control
# Staphylococcus aureus [11] = experiment: Increase in infB gene expression in biofilm-associated cells of epidemic methicillin-resistant Staphylococcus aureus isolate 16 at 4 times MIC incubated for 1 hr by whole genome microarray relative to untreated control
# Staphylococcus aureus [12] = experiment: Increase in cna expression in biofilm-associated cells of epidemic methicillin-resistant Staphylococcus aureus isolate 15 at 4 times MIC incubated for 1 hr by RT-PCR relative to untreated control
# Staphylococcus aureus [13] = experiment: Decrease in capC expression in biofilm-associated cells of epidemic methicillin-resistant Staphylococcus aureus isolate 15 at 4 times MIC incubated for 1 hr by RT-PCR relative to untreated control
# Staphylococcus aureus [14] = experiment: Increase in icaC expression in biofilm-associated cells of epidemic methicillin-resistant Staphylococcus aureus isolate 16-2 at 4 times MIC incubated for 1 hr by RT-PCR relative to untreated control
# Staphylococcus aureus [15] = experiment: Increase in rpmI gene expression in biofilm-associated cells of epidemic methicillin-resistant Staphylococcus aureus isolate 16 at 4 times MIC incubated for 1 hr by whole genome microarray relative to untreated control
# Staphylococcus aureus [16] = experiment: Decrease in capG gene expression in biofilm-associated cells of epidemic methicillin-resistant Staphylococcus aureus isolate 16 at 4 times MIC incubated for 1 hr by RT-PCR relative to untreated control
# Staphylococcus aureus [17] = experiment: Decrease in sasF expression in biofilm-associated cells of epidemic methicillin-resistant Staphylococcus aureus isolate 16-1 at 4 times MIC incubated for 1 hr by RT-PCR relative to untreated control
# Staphylococcus aureus [18] = experiment: Decrease in clpC gene expression in biofilm-associated cells of epidemic methicillin-resistant Staphylococcus aureus isolate 16 at 4 times MIC incubated for 1 hr by RT-PCR relative to untreated control
# Staphylococcus aureus [19] = experiment: Increase in cspB gene expression in biofilm-associated cells of epidemic methicillin-resistant Staphylococcus aureus isolate 16 at 4 times MIC incubated for 1 hr by whole genome microarray relative to untreated control
# Staphylococcus aureus [20] = experiment: Decrease in clpC expression in biofilm-associated cells of epidemic methicillin-resistant Staphylococcus aureus isolate 16-1 at 4 times MIC incubated for 1 hr by RT-PCR relative to untreated control
# Staphylococcus aureus [21] = experiment: Decrease in clfB expression in biofilm-associated cells of epidemic methicillin-resistant Staphylococcus aureus isolate 16-2 at 4 times MIC incubated for 1 hr by RT-PCR relative to untreated control
# Staphylococcus aureus [22] = experiment: Increase in infC gene expression in biofilm-associated cells of epidemic methicillin-resistant Staphylococcus aureus isolate 16 at 4 times MIC incubated for 1 hr by whole genome microarray relative to untreated control
# Staphylococcus aureus [23] = experiment: Increase in saeR gene expression in biofilm-associated cells of epidemic methicillin-resistant Staphylococcus aureus isolate 16 at 4 times MIC incubated for 1 hr by whole genome microarray relative to untreated control
# Staphylococcus aureus [24] = experiment: Increase in infA gene expression in biofilm-associated cells of epidemic methicillin-resistant Staphylococcus aureus isolate 16 at 4 times MIC incubated for 1 hr by whole genome microarray relative to untreated control
# Staphylococcus aureus [25] = experiment: Increase in mnhG gene expression in biofilm-associated cells of epidemic methicillin-resistant Staphylococcus aureus isolate 16 at 4 times MIC incubated for 1 hr by RT-PCR relative to untreated control
# Staphylococcus aureus [26] = experiment: Increase in mnhG gene expression in biofilm-associated cells of epidemic methicillin-resistant Staphylococcus aureus isolate 16 at 4 times MIC incubated for 1 hr by whole genome microarray relative to untreated control
# Staphylococcus aureus [27] = experiment: Decrease in mnhG expression in biofilm-associated cells of epidemic methicillin-resistant Staphylococcus aureus isolate 16-2 at 4 times MIC incubated for 1 hr by RT-PCR relative to untreated control
# Staphylococcus aureus [28] = experiment: Decrease in tst expression in biofilm-associated cells of epidemic methicillin-resistant Staphylococcus aureus isolate 16-1 at 4 times MIC incubated for 1 hr by RT-PCR relative to untreated control
# Staphylococcus aureus [29] = experiment: Decrease in capC gene expression in biofilm-associated cells of epidemic methicillin-resistant Staphylococcus aureus isolate 16 at 4 times MIC incubated for 1 hr by RT-PCR relative to untreated control
# Staphylococcus aureus [30] = experiment: Decrease in sasF gene expression in biofilm-associated cells of epidemic methicillin-resistant Staphylococcus aureus isolate 16 at 4 times MIC incubated for 1 hr by whole genome microarray relative to untreated control
# Staphylococcus aureus [31] = experiment: Decrease in sasF expression in biofilm-associated cells of epidemic methicillin-resistant Staphylococcus aureus isolate 15 at 4 times MIC incubated for 1 hr by RT-PCR relative to untreated control
# Staphylococcus aureus [32] = experiment: Decrease in clpB gene expression in biofilm-associated cells of epidemic methicillin-resistant Staphylococcus aureus isolate 16 at 4 times MIC incubated for 1 hr by whole genome microarray relative to untreated control
# Staphylococcus aureus [33] = experiment: Decrease in sasF expression in biofilm-associated cells of epidemic methicillin-resistant Staphylococcus aureus isolate 16-2 at 4 times MIC incubated for 1 hr by RT-PCR relative to untreated control
# Staphylococcus aureus [34] = experiment: Increase in dltA gene expression in biofilm-associated cells of epidemic methicillin-resistant Staphylococcus aureus isolate 16 at 4 times MIC incubated for 1 hr by whole genome microarray relative to untreated control
structure (smiles),measurement,setting,value
CN(C)c1cc(NC(=O)CNC(C)(C)C)c(O)c2c1C[C@H]1C[C@H]3[C@H](N(C)C)C(O)=C(C(N)=O)C(=O)[C@@]3(O)C(O)=C1C2=O [TIGECYCLINE],fold change (FC),Staphylococcus aureus [1],5.34
same,fold change (FC),Staphylococcus aureus [2],2.84
same,fold change (FC),Staphylococcus aureus [3],9.12
same,fold change (FC),Staphylococcus aureus [4],7.41
same,fold change (FC),Staphylococcus aureus [5],2.19
same,fold change (FC),Staphylococcus aureus [6],3.28
same,fold change (FC),Staphylococcus aureus [7],1.2
same,fold change (FC),Staphylococcus aureus [8],2.08
same,fold change (FC),Staphylococcus aureus [9],2.3
same,fold change (FC),Staphylococcus aureus [10],2.23
same,fold change (FC),Staphylococcus aureus [11],2.35
same,fold change (FC),Staphylococcus aureus [12],1.55
same,fold change (FC),Staphylococcus aureus [13],1.64
same,fold change (FC),Staphylococcus aureus [14],1.6
same,fold change (FC),Staphylococcus aureus [15],10.51
same,fold change (FC),Staphylococcus aureus [16],1.01
same,fold change (FC),Staphylococcus aureus [17],1.32
same,fold change (FC),Staphylococcus aureus [18],1.14
same,fold change (FC),Staphylococcus aureus [19],5.59
same,fold change (FC),Staphylococcus aureus [20],1.14
same,fold change (FC),Staphylococcus aureus [21],1.18
same,fold change (FC),Staphylococcus aureus [22],6.29
same,fold change (FC),Staphylococcus aureus [23],2.02
same,fold change (FC),Staphylococcus aureus [24],4.77
same,fold change (FC),Staphylococcus aureus [25],5.16
same,fold change (FC),Staphylococcus aureus [26],2.85
same,fold change (FC),Staphylococcus aureus [27],6.99
same,fold change (FC),Staphylococcus aureus [28],1.51
same,fold change (FC),Staphylococcus aureus [29],1.75
same,fold change (FC),Staphylococcus aureus [30],2.3
same,fold change (FC),Staphylococcus aureus [31],1.86
same,fold change (FC),Staphylococcus aureus [32],2.49
same,fold change (FC),Staphylococcus aureus [33],3.53
same,fold change (FC),Staphylococcus aureus [34],2.63
